Target: T1, serum amyloid P component (SAP) (Homo sapiens, UniProt P02743)
T1 construct: gene APCS; pentamer purified from serum; 204-residue subunits
Assay: ITC; crystal structure
Type: binding

T1 sequence (P02743 20-223): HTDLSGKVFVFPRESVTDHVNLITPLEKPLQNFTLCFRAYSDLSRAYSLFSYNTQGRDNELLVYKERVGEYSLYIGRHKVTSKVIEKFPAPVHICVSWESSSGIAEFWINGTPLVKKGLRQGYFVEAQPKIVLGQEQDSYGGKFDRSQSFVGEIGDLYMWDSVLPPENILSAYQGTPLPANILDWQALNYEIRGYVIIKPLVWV

Row | Kd [µM] | Compound
1 | 18.6 | CC(=O)N1CCC[C@@H]1C(=O)O [N-acetyl-D-proline]
2 | 322 | CC(=O)N1CCC[C@H]1C(=O)O [N-acetyl-L-proline]

Source: publication PMC4118831, “Interaction of serum amyloid P component with hexanoyl bis(D-proline) (CPHPC)” (Acta Crystallographica Section D: Biological Crystallography, 2014)
